Type in all cases: cell-based
Test [1] relates to HSV-1 KOS. The test is described as follows: Plaque reduction assay, HSV-1 KOS infection of Vero cell cultures. As to conditions: for antiviral activity compared with EB: plaque reduction (FIG. 1D, FIG. 2). As for the experimental part:
The procedures for growing Vero cells and preparing high titer stocks of HSV-1 KOS as described in (Grau et al., Invest. Ophthal. and Vis. Sci. 30: 2474 (1989)) were utilized. Vero cells were maintained in carbonate-buffered DMEM supplemented with 5% calf serum and 5% fetal bovine serum (regular medium). For some studies, cells were switched to serum-free DMEM buffered with 25 mM Hepes (pH 7.4) and allowed to adapt to that medium for 30 min prior to experimental treatments. Vero cells were seeded into wells (0.28 cm^2) of microtiter plates either at 3.5×10^4 cells/well for use 1 day later (8×10^4 cells/well) or at 1×10^4 cells/well for use 3 days later (2×10^5 cells/well).
Confluent Vero cell cultures in microtiter plates were infected for 1 hour at 37° C. in 40 μl of medium. Except where indicated, peptide treatments in 40 μl of medium lasted from 1 hour before through 1 hour after infection. At the end of the adsorption period, the cultures were re-fed with 100 μl of regular medium. Plaque formation was scored 2 days later and the number of plaques scored per well was normalized to the number counted in the absence of peptide. Using an ocular micrometer, plaque size ([…]) was determined by measuring the largest plaque diameter (L) and the diameter at a 90° angle to that (S). The size of each of the first 40 scored plaques was measured except when a plaque included less than 10 rounded cells or touched the side of the well.
On the technique in general: Plaques are areas of infected cells; plaque reduction assays count them against a control.

Test [2] has as its system HSV-1 KOS. The test is described as follows: Yield reduction assay (virus production in infected Vero cells). As for the experimental part: Three days post-infection, Vero cell cultures in microtiter plates were frozen (−80° C.) and thawed (37° C.) three times. Cells were suspended by repeated pipetting and microtiter plates were spun for 10 min at 700×g in a Beckman model TJ-6 tabletop centrifuge. The virus-containing supernates were serially diluted in regular medium and titered on Vero cells. Plaques were counted after staining the monolayers with crystal violet as taught by Grau et al., Invest. Ophthalmol. Vis. Sci. 30:2474 (1989).
Vero cell cultures as prepared in Example 1 were infected with HSV-1 and assayed for virus production as described in Example 1. The antiviral activity of an antiviral peptide according to the present invention EB (SEQ ID NO:1) was compared to the antiviral activity of the current HSV antiviral nucleoside standard, acyclovir. The two peptides were added to the Vero cells one hour prior to infection with HSV.

The test system of test [3] is hrR3. The test is described as follows: LacZ+ virus (hrR3) entry assay. The note with it: Table 3; read-out: Entry Blocking Activity (IC50). As for the experimental part:
Confluent Vero cell cultures in 96-well microtiter plates were switched to Hepes-buffered serum-free DMEM, cooled on ice to 4° C. for 30 min, and infected with hrR3 for 1 hour at 4° C. in 40 μl of medium. Unattached virus was removed by rinsing with ice-cold medium. Treatments with antiviral peptide SEQ ID NO:1, referred to as EB, or a control peptide which comprised the RRKK tetra-peptide (SEQ ID NO:16) attached to a scrambled version of the membrane transiting peptide RRKKLAALPLVLAAPLAVLA (SEQ ID NO:17) (referred to as EBX), or mock-treatments with peptide-free medium were carried out in serum-free DMEM as indicated. Virus entry was initiated by transferring cultures to 37° C. To inactivate any remaining extracellular virus, cultures were rinsed with PBS and exposed to low pH citrate buffer (40 mM citric acid, 10 mM KCl, 135 mM NaCl, pH 3.0, according to Highlander et al., J. Virol. 61:3356 (1987), for 1 min at 23° C. The citrate was rinsed off with PBS and cultures were maintained in serum-supplemented DMEM until they were fixed with 0.5% gluteraldehyde in 5×PBS for 30 min at 23° C., stained for β-galactosidase activity for 1 hour or overnight at 23° C. with X-gal (Fisher Biotech; BP 1615-1) in 1×PBS containing […], 1.3 mM K4Fe(CN)6, and 1.3 mM K3Fe(CN)6, and scored for the presence of blue lacZ^+ cells.
In these studies, the hrR3 virus was pre-adsorbed to cells for 1 hour at 4° C. before ice cold 25 μM EB or EBX were added in serum-free DMEM. After an additional 1 hour at 4° C., cultures were shifted to 37° C. to initiate virus entry. At 15 min intervals following the temperature shift, any virus remaining outside the cells was inactivated by washing the cultures with low pH citrate buffer. Cultures were then rinsed and returned to peptide-free serum-supplemented DMEM until they were fixed and stained for f-galactosidase 8 hours after the temperature shift.
This conclusion is strengthened by the finding that the EB-sensitive phase of infection with pre-adsorbed virus clearly precedes expression of lacZ genes in hrR3 infected cells (FIG. 7A). Again, hrR3 was pre-adsorbed to cells for 1 hour at 4° C., unattached virus was rinsed off, and cells were kept for an additional hour at 4° C. Cultures were then transferred to 23° C. for 30 min before they were switched to 37° C. The more gradual change to 37° C. allowed cell layers to remain intact through subsequent frequent medium changes. Immediately following viral adsorption, cells were treated with 50 μM EB for 1 hour periods at consecutive 1 hour intervals. Between 1 and 4 hours post-infection, virus entry was inhibited by 70-80%. […] Parallel cultures were immediately fixed after mock-treatments and stained with X-gal. In these cultures, blue (lacZ^+) cells first appeared 7 hours post-infection and their number increased nearly linearly for the next 3 hours (FIG. 7A, (∘)). By 7 hours post-infection, EB ceased to be inhibitory.

The test system of test [4] is virus. Briefly: Anti-free virus activity (Table 3).
The subject of test [5] is hrR3. Briefly: Virucidal assay. As for the experimental part: […] The treated virus was diluted 200-fold with serum-supplemented DMEM and assayed for infectivity approximately 1 hour later in microtiter wells seeded with Vero cells (3.5×10^4 cells/well) 1 d earlier. Forty or 100 microliter volumes of diluted virus were adsorbed for 1 or 2 h at 37° C. and lacZ^+ cells were scored 8 hours later. In some experiments, aliquots of diluted virus were first dialyzed (Spectra/Por; MWCO 12-14,000) overnight at 4° C. against a 60-fold excess volume of Hepes-buffered serum-supplemented DMEM or forced by syringe through 0.22 μm membranes (Millex-GV; Millipore) before the remaining infectious virus was assayed.

Where [6] appears, read: 4° C., read-out: Virucidal Activity 4° C. (IC50).
Setting [7] is: 37° C., read-out: Virucidal Activity 37° C. (IC50).

Peptide text beside a SMILES is read from it. * marks the point of attachment. Biotin = O=C1N[C@H]2[C@H](CS[C@H]2CCCCC(=O)*)N1; Ahx = NCCCCCC(=O)O

Regarding `N=C(N)NCCC[C@H](NC(=O)[C@@H](N)CCCNC(=N)N)C(=O)N[C@@H](CCCCN)C(=O)N[C@@H](CCCCN)C(=O)O` [R-R-K-K tetramer, R-R-K-K, reference compound] (H-RRKK-OH; N-terminus and C-terminus assumed), the antiviral activity result in test [1] (presence of serum, concentrations as high as 200 μM (FIG. 1A)) is recorded as “no antiviral activity”.
With `Nc1nc2c(ncn2COCCO)c(=O)[nH]1` [acyclovir, reference compound], the “antiviral activity, EB compared with acyclovir” value in test [2] (added one hour prior to infection, EB statement for concentrations exceeding 10 μM (FIG. 3)) is given as “highest antiviral activity at low dosages”.
As to `CC(C)C[C@H](NC(=O)[C@H](C)NC(=O)[C@H](CC(C)C)NC(=O)[C@H](CC(C)C)NC(=O)[C@@H](NC(=O)[C@H](C)NC(=O)[C@@H]1CCCN1C(=O)[C@H](CC(C)C)NC(=O)[C@H](CC(C)C)NC(=O)[C@H](C)NC(=O)[C@@H](NC(=O)[C@H](C)NC(=O)[C@H](C)NC(=O)[C@H](CCCCN)NC(=O)[C@H](CCCCN)NC(=O)[C@H](CCCNC(=N)N)NC(=O)[C@H](CCCNC(=N)N)NC(=O)CCCCCNC(=O)CCCC[C@@H]1SC[C@@H]2NC(=O)N[C@@H]21)C(C)C)C(C)C)C(=O)N[C@@H](CC(C)C)C(=O)N[C@@H](C)C(=O)N1CCC[C@H]1C(=O)O` [bEB] ({Biotin-Ahx}-RRKKAAVALLPAVLLALLAP-OH), the “antiviral activity compared with EB” value in test [1] is recorded as “essentially as effective as EB”. The IC50 (in general, the point on the concentration scale where inhibition reaches its midpoint) in test [3] stood at 15 µM; in test [4], 21 µM; in test [5] (setting [6]) it was 110 µM; in test [5] (setting [7]), 35 µM.
Regarding `CC[C@H](C)[C@H](NC(=O)[C@H](CCCCN)NC(=O)[C@@H](NC(=O)[C@H](CCC(N)=O)NC(=O)[C@H](CCCNC(=N)N)NC(=O)CCCCCNC(=O)CCCC[C@@H]1SC[C@@H]2NC(=O)N[C@@H]21)[C@@H](C)CC)C(=O)N[C@@H](Cc1c[nH]c2ccccc12)C(=O)N[C@@H](Cc1ccccc1)C(=O)N1CCC[C@H]1C(=O)N[C@@H](CC(N)=O)C(=O)N[C@@H](CCCNC(=N)N)C(=O)N[C@@H](CCCNC(=N)N)C(=O)N[C@@H](CCSC)C(=O)N[C@@H](CCCCN)C(=O)N[C@@H](Cc1c[nH]c2ccccc12)C(=O)N[C@@H](CCCCN)C(=O)N[C@@H](CCCCN)C(=O)N1CCC[C@H]1C(=O)NCC(=O)N[C@@H](Cc1ccc(O)cc1)C(=O)N[C@@H](C)C(=O)NCC(=O)N[C@@H](C)C(=O)N[C@H](C(=O)N[C@H](C(=O)N[C@@H](CC(N)=O)C(=O)N[C@@H](CC(=O)O)C(=O)N[C@@H](CC(C)C)C(=O)O)C(C)C)C(C)C` [bHOM-9, b-RQIKIWFPNRRMKWKK-9] ({Biotin-Ahx}-RQIKIWFPNRRMKWKKPGYAGAVVNDL-OH), the IC50 in test [3] is 9 to 12 µM; in test [4], 6 µM; in test [5] (setting [7]), 115 µM. Further, the “Virucidal Activity 4° C. (IC50)” value in test [5] (4° C.) was “None”.
Take `CC[C@H](C)[C@H](NC(=O)[C@H](CCCCN)NC(=O)[C@@H](NC(=O)[C@H](CCC(N)=O)NC(=O)[C@H](CCCNC(=N)N)NC(=O)CCCCCNC(=O)CCCC[C@@H]1SC[C@@H]2NC(=O)N[C@@H]21)[C@@H](C)CC)C(=O)N[C@@H](Cc1ccccc1)C(=O)N[C@@H](Cc1ccccc1)C(=O)N1CCC[C@H]1C(=O)N[C@@H](CC(N)=O)C(=O)N[C@@H](CCCNC(=N)N)C(=O)N[C@@H](CCCNC(=N)N)C(=O)N[C@@H](CCSC)C(=O)N[C@@H](CCCCN)C(=O)N[C@@H](Cc1ccccc1)C(=O)N[C@@H](CCCCN)C(=O)N[C@@H](CCCCN)C(N)=O` [bHOMFF, b-RQIKI F FPNRRMK F KK-amide] ({Biotin-Ahx}-RQIKIFFPNRRMKFKK-NH2): the IC50 in test [3] was 40 µM; in test [4], 34 µM. Also, the “Virucidal Activity 4° C. (IC50)” value in test [5] (4° C.) is listed as “None”. Also, the “Virucidal Activity 37° C. (IC50)” value in test [5] (37° C.) is “None”.
In the case of `CC(C)C[C@H](NC(=O)[C@H](C)NC(=O)[C@H](CCCCN)NC(=O)[C@H](CC(C)C)NC(=O)[C@H](C)NC(=O)[C@H](CC(C)C)NC(=O)[C@H](CCCCN)NC(=O)[C@H](CC(C)C)NC(=O)[C@H](C)NC(=O)[C@H](CC(C)C)NC(=O)[C@H](CCCCN)NC(=O)CCCCCNC(=O)CCCC[C@@H]1SC[C@@H]2NC(=O)N[C@@H]21)C(=O)N[C@@H](CCCCN)C(=O)N[C@@H](C)C(=O)N[C@@H](C)C(=O)N[C@@H](CC(C)C)C(=O)N[C@@H](CCCCN)C(=O)N[C@@H](CC(C)C)C(=O)N[C@@H](C)C(N)=O` [bKLA, b-KLALKLALKALKAALKLA-amide], the values for the IC50 in test [3], in test [4] and in test [5] (setting [6]) were 11 µM, 4.5 µM and 45 µM, respectively.
For the compound `CC(C)C[C@H](NC(=O)[C@H](CC(=O)O)NC(=O)[C@H](CC(N)=O)NC(=O)[C@@H](NC(=O)[C@@H](NC(=O)[C@H](C)NC(=O)CNC(=O)[C@H](C)NC(=O)[C@H](Cc1ccc(O)cc1)NC(=O)CNC(=O)[C@@H]1CCCN1C(=O)[C@H](CCCNC(=N)N)NC(=O)[C@H](CCCNC(=N)N)NC(=O)[C@H](CCCNC(=N)N)NC(=O)[C@H](CCC(N)=O)NC(=O)[C@H](CCCNC(=N)N)NC(=O)[C@H](CCCNC(=N)N)NC(=O)[C@H](CCCCN)NC(=O)[C@H](CCCCN)NC(=O)[C@H](CCCNC(=N)N)NC(=O)CNC(=O)[C@H](Cc1ccc(O)cc1)NC(=O)CCCCCNC(=O)CCCC[C@@H]1SC[C@@H]2NC(=O)N[C@@H]21)C(C)C)C(C)C)C(=O)O` [bTAT-9, b-YGRKKRRQRRR-9] ({Biotin-Ahx}-YGRKKRRQRRRPGYAGAVVNDL-OH), the IC50 in test [3] was 26 µM; in test [4], 8 µM. Further, in test [5] (4° C.), the “Virucidal Activity 4° C. (IC50)” value is recorded as “None”. The “Virucidal Activity 37° C. (IC50)” value in test [5] (37° C.) is recorded as “None”.
Regarding “NH2-RRKKAAVALLAV LLALLAPP-COOH (H-RRKKAAVALLAVLLALLAPP-OH) [EBPP]”, the “antiviral activity compared with EB” value in test [1] and in test [2] (yield reduction (FIG. 1E; data not shown)) was “twice as active” throughout.
For RQIKIWFPNRRMKWKK [bHOMd], the IC50 in test [3] was 7 µM; in test [5] (setting [7]), 115 µM. Also, the “Virucidal Activity 4° C. (IC50)” value in test [5] (4° C.) is given as “None”.
Turning to b-YGRKKRRQRRR-9x [bTAT-9x], in test [3], the IC50 stood at 67 µM. Further, in test [5] (4° C.), the “Virucidal Activity 4° C. (IC50)” value is “None”. For the same compound, the “Virucidal Activity 37° C. (IC50)” value in test [5] (37° C.) is recorded as “None”.

These data come from patent US8748566B2, “Pharmacologically active antiviral peptides and methods of use” (priority 2000, dated 2014).
